Data from patent US4550186A, “Binuclear copper (II) carboxylates formed from amine-carboxyboranes” (Duke University, priority 1983, dated 1985).

What was measured:
[1] = test system: Holtzman male rats; assay: Plasma lipoprotein fractions; format: in vivo, rat; details: 14 days 10 mg/kg/day orally
Experimental: […] On day 14, blood was collected from the abdominal aorta. Serum was separated from whole blood by centrifugation at 3500 rpm. Aliquots (3 ml) were separated by density gradient ultracentrifugation according to the method of Hatch and Lees [Adv. Lipid Res., 6, 33 (1968)] and Havel et al [J. Clin. Invest., 34, 1395 (1955)] into the chylomicrons,very low density lipoproteins, high density lipoproteins and low density lipoproteins. Each of the fractions was analyzed for cholesterol, triglyceride, neutral lipids, phospholipids and protein levels.
Data are expressed in the Table 2-7 as percent of control ± the standard deviation. The probable significant level (P) between each test group and the control group was determined by the Student's "t" test.

[2] = target: T1, HMG CoA Reductase (Mus musculus, UniProt Q01237); assay: In vivo liver enzyme study: HMG CoA reductase; details: CF1 liver after 16 days i.p.
T1 construct: 10% homogenates of CF1 male mouse liver; from tissue; host or cells: CF1 male mouse liver, post-mitochondrial supernatant
T1 sequence (Q01237 1-887): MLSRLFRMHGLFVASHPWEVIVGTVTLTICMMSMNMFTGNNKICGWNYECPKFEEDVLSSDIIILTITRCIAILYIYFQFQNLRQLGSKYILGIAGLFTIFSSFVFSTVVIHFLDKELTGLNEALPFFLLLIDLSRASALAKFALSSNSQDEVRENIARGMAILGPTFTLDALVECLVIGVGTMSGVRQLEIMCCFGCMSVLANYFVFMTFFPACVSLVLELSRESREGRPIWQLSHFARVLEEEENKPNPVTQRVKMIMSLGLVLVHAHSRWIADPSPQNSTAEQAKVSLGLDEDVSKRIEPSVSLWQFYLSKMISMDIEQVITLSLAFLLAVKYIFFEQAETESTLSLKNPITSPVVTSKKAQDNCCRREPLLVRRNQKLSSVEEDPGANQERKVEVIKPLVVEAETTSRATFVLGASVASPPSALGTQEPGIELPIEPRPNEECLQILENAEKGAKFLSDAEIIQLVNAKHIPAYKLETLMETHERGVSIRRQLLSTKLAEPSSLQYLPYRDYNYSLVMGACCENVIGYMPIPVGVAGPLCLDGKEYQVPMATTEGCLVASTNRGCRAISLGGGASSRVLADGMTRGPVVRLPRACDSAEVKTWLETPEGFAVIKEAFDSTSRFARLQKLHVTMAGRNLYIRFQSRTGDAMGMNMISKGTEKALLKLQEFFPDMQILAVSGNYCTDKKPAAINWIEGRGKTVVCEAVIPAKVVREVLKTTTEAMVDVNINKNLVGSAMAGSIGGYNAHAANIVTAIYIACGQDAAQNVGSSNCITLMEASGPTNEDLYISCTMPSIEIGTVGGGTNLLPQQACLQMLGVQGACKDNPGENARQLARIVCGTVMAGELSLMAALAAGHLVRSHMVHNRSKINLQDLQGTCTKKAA
Experimental: In vitro enzymatic studies were determined using 10% homogenates of CF1 male mouse liver with 50-200 μM of test drugs. In vivo enzymatic studies were determined using 10% homogenates of liver from CF1 male mice obtained after administering the agents for 16 days at a dose ranging from 2.5-20 mg/kg/day intraperitoneally. The liver homogenates for both in vitro and in vivo studies were prepared in 0.25M sucrose and 0.001M (ethylenedinitrilo)tetraacetic acid. Acetyl coenzyme A synthetase and adenosine triphosphate dependent citrate lyase activities were determined spectrophotometrically at 540 nm as the hydroxylamate of acetyl coenzyme A formed after 30 min at 37° C. Mitochondrial citrate exchange was determined by the procedure of Robinson et al [Eur. J. Biochem., 216, 63 (1970)] using ^14 C-sodium bicarbonate (41 mCi/mmol) incorporated into mitochondrial ^14 C-citrate after isolating rat mitochondria (9000 g×10 min) from the homogenates. The exchanges of the ^14 C-citrate were determined after incubating the mitochondrial fraction which was loaded with labeled citrate and test drugs for 10 min. Then the radioactivity was measured in the mitochondrial and supernantant fractions in scintillation fluid and expressed as a percentage. Cholesterol side chain oxidation was determined by the method of Kritchevsky and Tepper [Artherosclerosis, 18, 93 (1973)] using (26-^14 C) cholesterol (50 mCi/mmol) and mitochondria isolated from rat liver homogenates. […] Fatty acid synthetase activity was determined by the method of Brady et al [J. Biol. Chem., 235, 3093 (1960)] using [2-^14 C] malonyl-coenzyme A (37.5 mCi/mmol) which was incorporated into newly synthesized fatty acids that were extracted with ether and counted. Acyl transferase activity was determined with glycerol-3phosphate [L-2-^3 H(N)] […] HCl and counted. Phosphatidate phosphohydrolase activity was measured as the inorganic phosphate released after 30 min from phosphatidic acid by the method of Mavis et al [J. Lipid Res., 19, 467 (1978)]. […]

How did the Cholesterol ([1]; rat serum Chylomicrons) turn out when “{Cu[(CH3)3 N.BH2 CO2 ]2.(CH3)3 N.BH2 COOH} [Compound I]” was run?
The Cholesterol was 88 ± 6 Percent Control.

What about the “Neutral Lipids” value ([1]; rat serum Chylomicrons) of the same substance?
Its value is 67 ± 7 Percent Control.

And the Phospholipids ([1]; rat serum Chylomicrons)?
Its Phospholipids is 96 ± 6 Percent Control.

What about the Protein ([1]; rat serum Chylomicrons) of the same substance?
The Protein was 99 ± 7 Percent Control.

What about the Triglyceride ([1]; rat serum Chylomicrons) of the same substance?
Its Triglyceride is 58 ± 5 Percent Control.

And the Cholesterol ([1]; rat serum HDL)?
Its Cholesterol is 64 ± 5 Percent Control.

What about the “Neutral Lipids” value ([1]; rat serum HDL) of the same substance?
Its value is 72 ± 8 Percent Control.

What about the Phospholipids ([1]; rat serum HDL) of the same substance?
The Phospholipids was 86 ± 7 Percent Control.

And the Protein ([1]; rat serum HDL)?
The Protein was 108 ± 8 Percent Control.

And the Triglyceride ([1]; rat serum HDL)?
The Triglyceride was 31 ± 5 Percent Control.

What about the Cholesterol ([1]; rat serum LDL) of the same substance?
Its Cholesterol is 68 ± 6 Percent Control.

What about the “Neutral Lipids” value ([1]; rat serum LDL) of the same substance?
Its value is 78 ± 7 Percent Control.

What about the Phospholipids ([1]; rat serum LDL) of the same substance?
Its Phospholipids is 105 ± 6 Percent Control.

And the Protein ([1]; rat serum LDL)?
The Protein was 101 ± 6 Percent Control.

What about the Triglyceride ([1]; rat serum LDL) of the same substance?
Its Triglyceride is 70 ± 6 Percent Control.

And the Cholesterol ([1]; rat serum VLDL)?
Its Cholesterol is 32 ± 3 Percent Control.

And the “Neutral Lipids” value ([1]; rat serum VLDL)?
Its value is 62 ± 5 Percent Control.

And the Phospholipids ([1]; rat serum VLDL)?
The Phospholipids was 100 ± 7 Percent Control.

And the Protein ([1]; rat serum VLDL)?
The Protein was 96 ± 7 Percent Control.

And the Triglyceride ([1]; rat serum VLDL)?
The Triglyceride was 43 ± 4 Percent Control.

What about the “HMG CoA Reductase” value ([2]; 2.5 mg/kg) of the same substance?
Its value is 112 ± 8% of control.

And the “HMG CoA Reductase” value ([2]; 5.0 mg/kg)?
The value was 108 ± 9% of control.

What about the “HMG CoA Reductase” value ([2]; 10 mg/kg) of the same substance?
Its value is 102 ± 8% of control.
